In paper PMC9898036, “VIP152 is a selective CDK9 inhibitor with pre-clinical in vitro and in vivo efficacy in chronic lymphocytic leukemia” (Leukemia, 2022):

What was measured:
Experiment in all cases: DiscoverX KINOMEscan kinase profiling (468 assays)
Assay type in all cases: binding
human kinome [1] = target: human kinome (Homo sapiens, UniProt O43318); conditions: kinase TAK1 (Entrez MAP3K7); compound concentration 1000 nM; read-out: Percent Control
Outline: (§1)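 VIP152 was run in DMSO, alongside a DMSO control. Readout was qPCR of DNA-tagged kinase still bound to bead-immobilized biotinylated kinase ligands after compound competition.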

human kinome [2] = target: human kinome (Homo sapiens, UniProt O00506); conditions: kinase YSK1 (Entrez STK25); compound concentration 1000 nM; read-out: Percent Control
Outline: as §1

human kinome [3] = target: human kinome (Homo sapiens, UniProt Q9P286); conditions: read-out: Percent Control
Outline: as §1

human kinome [4] = target: human kinome (Homo sapiens, UniProt Q9Y616); conditions: IRAK3; 100 nM; read-out: Percent Control
Outline: as §1

human kinome [5] = target: human kinome (Homo sapiens, UniProt Q02763); conditions: kinase TIE2 (Entrez TEK); compound concentration 1000 nM; read-out: Percent Control
Outline: as §1

human kinome [6] = target: human kinome (Homo sapiens, UniProt P36896); conditions: ACVR1B; 100 nM; read-out: Percent Control
Outline: as §1

human kinome [7] = target: human kinome (Homo sapiens, UniProt Q13164); conditions: ERK5 (Entrez MAPK7); 100 nM; read-out: Percent Control
Outline: as §1

human kinome [8] = target: human kinome (Homo sapiens, UniProt Q13177); conditions: read-out: Percent Control
Outline: as §1

human kinome [9] = target: human kinome (Homo sapiens, UniProt O00238); conditions: BMPR1B; 100 nM; read-out: Percent Control
Outline: as §1

human kinome [10] = target: human kinome (Homo sapiens, UniProt P36888, K663Q); conditions: FLT3(K663Q); 100 nM; read-out: Percent Control
Outline: as §1

human kinome [11] = target: human kinome (Homo sapiens, UniProt P41743); conditions: read-out: Percent Control
Outline: as §1

human kinome [12] = target: human kinome (Homo sapiens, UniProt Q8IVW4); conditions: CDKL3; 100 nM; read-out: Percent Control
Outline: as §1

human kinome [13] = target: human kinome (Homo sapiens, UniProt Q9H4B4); conditions: read-out: Percent Control
Outline: as §1

human kinome [14] = target: human kinome (Homo sapiens, UniProt Q9H2X6); conditions: HIPK2; 100 nM; read-out: Percent Control
Outline: as §1

human kinome [15] = target: human kinome (Homo sapiens, UniProt Q00536); conditions: read-out: Percent Control
Outline: as §1

human kinome [16] = target: human kinome (Homo sapiens, UniProt Q86UE8); conditions: kinase TLK2 (Entrez TLK2); compound concentration 1000 nM; read-out: Percent Control
Outline: as §1

human kinome [17] = target: human kinome (Homo sapiens, UniProt P21127); conditions: CDC2L1 (Entrez CDK11B); 100 nM; read-out: Percent Control
Outline: as §1

human kinome [18] = target: human kinome (Homo sapiens, UniProt P49759); conditions: CLK1; 100 nM; read-out: Percent Control
Outline: as §1

human kinome [19] = target: human kinome (Homo sapiens, UniProt P07949, M918T); conditions: kinase RET(M918T) (Entrez RET); compound concentration 1000 nM; read-out: Percent Control
Outline: as §1

human kinome [20] = target: human kinome (Homo sapiens, UniProt P42336, Q546K); conditions: read-out: Percent Control
Outline: as §1

human kinome [21] = target: human kinome (Homo sapiens, UniProt Q86Y07); conditions: kinase VRK2 (Entrez VRK2); compound concentration 1000 nM; read-out: Percent Control
Outline: as §1

human kinome [22] = target: human kinome (Homo sapiens, UniProt Q9P1W9); conditions: read-out: Percent Control
Outline: as §1

human kinome [23] = target: human kinome (Homo sapiens, UniProt P21709); conditions: EPHA1; 100 nM; read-out: Percent Control
Outline: as §1

human kinome [24] = target: human kinome (Homo sapiens, UniProt Q9UPE1); conditions: kinase SRPK3 (Entrez SRPK3); compound concentration 1000 nM; read-out: Percent Control
Outline: as §1

human kinome [25] = target: human kinome (Homo sapiens, UniProt P08631); conditions: HCK; 100 nM; read-out: Percent Control
Outline: as §1

human kinome [26] = target: human kinome (Homo sapiens, UniProt Q8IWQ3); conditions: BRSK2; 100 nM; read-out: Percent Control
Outline: as §1

human kinome [27] = target: human kinome (Homo sapiens, UniProt Q8IY84); conditions: read-out: Percent Control
Outline: as §1

human kinome [28] = target: human kinome (Homo sapiens, UniProt Q04912); conditions: MST1R; 100 nM; read-out: Percent Control
Outline: as §1

human kinome [29] = target: human kinome (Homo sapiens, UniProt Q9Y243); conditions: AKT3; 100 nM; read-out: Percent Control
Outline: as §1

Chain of human kinome (Homo sapiens, UniProt Q9P1W9) (Q9P1W9 whole entry): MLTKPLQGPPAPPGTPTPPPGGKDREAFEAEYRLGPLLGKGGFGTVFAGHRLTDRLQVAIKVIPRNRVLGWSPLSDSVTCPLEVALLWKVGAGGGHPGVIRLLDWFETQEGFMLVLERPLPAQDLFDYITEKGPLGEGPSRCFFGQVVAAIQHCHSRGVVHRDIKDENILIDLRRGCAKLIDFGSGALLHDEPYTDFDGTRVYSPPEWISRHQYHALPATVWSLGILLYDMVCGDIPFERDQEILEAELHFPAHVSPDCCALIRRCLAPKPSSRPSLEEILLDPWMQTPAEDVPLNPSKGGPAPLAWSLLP
Chain of human kinome (Homo sapiens, UniProt P41743) (P41743 whole entry): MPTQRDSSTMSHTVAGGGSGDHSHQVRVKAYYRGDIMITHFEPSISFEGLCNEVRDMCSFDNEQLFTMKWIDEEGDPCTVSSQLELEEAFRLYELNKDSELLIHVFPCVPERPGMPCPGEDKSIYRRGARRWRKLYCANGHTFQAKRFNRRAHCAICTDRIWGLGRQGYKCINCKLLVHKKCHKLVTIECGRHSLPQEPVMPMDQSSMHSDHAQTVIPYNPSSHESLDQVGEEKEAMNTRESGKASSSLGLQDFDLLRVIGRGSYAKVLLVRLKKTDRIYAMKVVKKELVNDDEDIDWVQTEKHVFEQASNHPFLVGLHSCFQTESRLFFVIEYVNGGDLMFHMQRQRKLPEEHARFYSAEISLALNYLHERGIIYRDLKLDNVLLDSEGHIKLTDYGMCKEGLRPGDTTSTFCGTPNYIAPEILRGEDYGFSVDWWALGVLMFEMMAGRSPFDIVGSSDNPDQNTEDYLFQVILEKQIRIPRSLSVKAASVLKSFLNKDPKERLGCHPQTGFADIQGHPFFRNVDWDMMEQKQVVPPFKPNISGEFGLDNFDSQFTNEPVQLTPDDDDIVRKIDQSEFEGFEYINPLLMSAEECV
Chain of human kinome (Homo sapiens, UniProt Q9H4B4) (Q9H4B4 whole entry): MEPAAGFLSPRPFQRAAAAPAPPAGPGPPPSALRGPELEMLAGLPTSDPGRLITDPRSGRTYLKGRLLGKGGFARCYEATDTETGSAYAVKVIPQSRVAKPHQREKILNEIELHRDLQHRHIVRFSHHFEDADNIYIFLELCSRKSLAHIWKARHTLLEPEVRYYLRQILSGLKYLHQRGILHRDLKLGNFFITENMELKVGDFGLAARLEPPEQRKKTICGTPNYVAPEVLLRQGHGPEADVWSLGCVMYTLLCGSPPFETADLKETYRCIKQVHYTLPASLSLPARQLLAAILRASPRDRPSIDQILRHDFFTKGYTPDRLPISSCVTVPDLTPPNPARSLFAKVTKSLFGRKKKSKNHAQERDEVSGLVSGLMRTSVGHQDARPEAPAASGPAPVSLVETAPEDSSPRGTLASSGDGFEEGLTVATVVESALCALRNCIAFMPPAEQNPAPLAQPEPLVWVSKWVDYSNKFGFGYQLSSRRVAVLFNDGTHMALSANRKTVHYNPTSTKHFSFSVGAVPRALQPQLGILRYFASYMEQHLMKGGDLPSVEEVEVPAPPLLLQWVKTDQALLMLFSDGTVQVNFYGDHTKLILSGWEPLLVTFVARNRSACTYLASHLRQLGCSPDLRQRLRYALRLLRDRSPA
Chain of human kinome (Homo sapiens, UniProt P42336, Q546K) (P42336 whole entry Q546K): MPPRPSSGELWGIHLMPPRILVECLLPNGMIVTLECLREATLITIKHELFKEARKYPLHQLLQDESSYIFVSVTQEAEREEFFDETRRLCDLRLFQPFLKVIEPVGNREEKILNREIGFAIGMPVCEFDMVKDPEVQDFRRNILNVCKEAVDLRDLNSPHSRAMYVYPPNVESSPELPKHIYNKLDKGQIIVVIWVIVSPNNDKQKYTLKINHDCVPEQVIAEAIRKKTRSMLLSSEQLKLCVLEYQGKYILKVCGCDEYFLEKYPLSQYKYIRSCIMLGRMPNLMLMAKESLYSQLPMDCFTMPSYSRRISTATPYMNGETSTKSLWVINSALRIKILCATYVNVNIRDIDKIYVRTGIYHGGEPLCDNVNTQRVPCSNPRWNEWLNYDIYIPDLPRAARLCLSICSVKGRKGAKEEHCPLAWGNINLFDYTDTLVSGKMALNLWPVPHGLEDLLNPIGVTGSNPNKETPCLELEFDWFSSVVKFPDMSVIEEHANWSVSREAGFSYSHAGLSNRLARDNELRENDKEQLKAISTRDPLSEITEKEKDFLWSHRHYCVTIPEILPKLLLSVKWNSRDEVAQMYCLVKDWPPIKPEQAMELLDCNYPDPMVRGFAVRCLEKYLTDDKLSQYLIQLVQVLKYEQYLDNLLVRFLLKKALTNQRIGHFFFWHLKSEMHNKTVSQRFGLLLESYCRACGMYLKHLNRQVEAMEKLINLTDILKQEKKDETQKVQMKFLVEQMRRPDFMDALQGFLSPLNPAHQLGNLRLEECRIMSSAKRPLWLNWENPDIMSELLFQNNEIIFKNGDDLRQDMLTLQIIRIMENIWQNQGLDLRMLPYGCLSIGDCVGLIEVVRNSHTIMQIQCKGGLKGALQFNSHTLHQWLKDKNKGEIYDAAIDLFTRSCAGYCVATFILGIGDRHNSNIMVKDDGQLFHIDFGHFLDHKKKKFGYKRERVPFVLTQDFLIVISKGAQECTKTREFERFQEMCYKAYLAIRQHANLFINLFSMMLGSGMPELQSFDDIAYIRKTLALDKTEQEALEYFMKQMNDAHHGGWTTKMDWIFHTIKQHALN
Chain of human kinome (Homo sapiens, UniProt Q00536) (Q00536 whole entry): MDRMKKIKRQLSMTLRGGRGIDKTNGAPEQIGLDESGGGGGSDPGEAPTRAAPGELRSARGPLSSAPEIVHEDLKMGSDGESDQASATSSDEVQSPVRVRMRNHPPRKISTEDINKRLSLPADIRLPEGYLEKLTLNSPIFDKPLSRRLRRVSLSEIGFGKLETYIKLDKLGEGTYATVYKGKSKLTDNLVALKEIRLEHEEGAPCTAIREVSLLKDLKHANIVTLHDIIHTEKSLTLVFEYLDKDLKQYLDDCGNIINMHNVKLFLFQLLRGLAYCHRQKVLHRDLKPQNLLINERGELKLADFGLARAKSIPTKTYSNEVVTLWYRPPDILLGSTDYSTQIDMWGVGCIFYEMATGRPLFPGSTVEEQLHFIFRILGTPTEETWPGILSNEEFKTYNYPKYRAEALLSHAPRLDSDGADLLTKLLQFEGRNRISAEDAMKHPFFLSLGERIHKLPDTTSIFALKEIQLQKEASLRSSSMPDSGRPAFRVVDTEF
Chain of human kinome (Homo sapiens, UniProt Q9P286) (Q9P286 whole entry): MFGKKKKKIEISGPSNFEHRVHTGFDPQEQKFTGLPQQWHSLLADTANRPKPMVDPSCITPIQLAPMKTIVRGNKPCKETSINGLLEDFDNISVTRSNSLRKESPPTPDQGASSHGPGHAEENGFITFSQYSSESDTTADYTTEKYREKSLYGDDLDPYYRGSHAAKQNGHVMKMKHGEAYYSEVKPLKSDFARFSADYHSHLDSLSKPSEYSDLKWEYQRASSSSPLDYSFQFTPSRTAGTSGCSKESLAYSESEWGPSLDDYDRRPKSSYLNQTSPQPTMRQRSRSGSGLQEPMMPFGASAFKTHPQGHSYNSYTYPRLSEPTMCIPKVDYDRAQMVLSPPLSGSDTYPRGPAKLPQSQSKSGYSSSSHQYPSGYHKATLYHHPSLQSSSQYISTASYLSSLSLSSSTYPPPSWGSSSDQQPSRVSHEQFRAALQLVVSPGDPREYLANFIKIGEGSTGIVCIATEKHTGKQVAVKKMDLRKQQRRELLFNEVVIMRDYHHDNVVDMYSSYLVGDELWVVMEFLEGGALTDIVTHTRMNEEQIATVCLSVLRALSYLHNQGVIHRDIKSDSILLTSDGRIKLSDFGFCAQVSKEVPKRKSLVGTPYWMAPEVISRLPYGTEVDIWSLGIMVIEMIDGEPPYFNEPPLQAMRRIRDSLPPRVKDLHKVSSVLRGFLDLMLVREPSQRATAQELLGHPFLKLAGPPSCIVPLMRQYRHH
Chain of human kinome (Homo sapiens, UniProt Q13177) (Q13177 whole entry): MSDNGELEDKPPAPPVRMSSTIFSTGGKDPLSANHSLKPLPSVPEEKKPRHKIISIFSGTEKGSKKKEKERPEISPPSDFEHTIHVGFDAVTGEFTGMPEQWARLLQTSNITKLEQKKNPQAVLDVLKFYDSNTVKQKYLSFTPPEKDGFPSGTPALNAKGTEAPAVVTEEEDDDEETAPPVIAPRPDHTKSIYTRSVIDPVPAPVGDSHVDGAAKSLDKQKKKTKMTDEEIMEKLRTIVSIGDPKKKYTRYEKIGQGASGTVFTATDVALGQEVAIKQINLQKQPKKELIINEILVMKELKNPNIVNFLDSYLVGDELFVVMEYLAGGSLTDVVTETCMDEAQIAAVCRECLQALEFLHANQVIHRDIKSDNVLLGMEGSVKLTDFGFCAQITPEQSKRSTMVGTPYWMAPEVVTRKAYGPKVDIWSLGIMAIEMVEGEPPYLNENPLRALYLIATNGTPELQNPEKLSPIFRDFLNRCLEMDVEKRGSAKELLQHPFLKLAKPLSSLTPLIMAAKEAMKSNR
Chain of human kinome (Homo sapiens, UniProt Q8IY84) (Q8IY84 whole entry): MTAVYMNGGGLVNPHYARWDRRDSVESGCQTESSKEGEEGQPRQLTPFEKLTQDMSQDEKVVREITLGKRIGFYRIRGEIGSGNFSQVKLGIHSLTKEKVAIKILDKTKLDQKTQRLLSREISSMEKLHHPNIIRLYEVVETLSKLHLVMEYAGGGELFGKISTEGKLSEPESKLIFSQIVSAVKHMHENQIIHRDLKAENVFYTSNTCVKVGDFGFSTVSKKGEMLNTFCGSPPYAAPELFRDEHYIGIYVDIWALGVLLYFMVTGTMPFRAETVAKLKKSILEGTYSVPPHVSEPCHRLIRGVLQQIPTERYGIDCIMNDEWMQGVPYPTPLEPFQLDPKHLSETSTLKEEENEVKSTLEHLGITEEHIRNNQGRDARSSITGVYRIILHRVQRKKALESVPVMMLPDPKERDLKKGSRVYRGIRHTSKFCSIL

COc1cc(F)ccc1-c1cc(Nc2cc(CS(C)(=N)=O)ccn2)ncc1F (stereo not shown) [VIP152]
remaining binding at 1 µM (human kinome [1]): 65% | remaining binding at 1 µM (human kinome [2]): 100% | remaining binding at 0.1 µM (human kinome [3]; PAK7, 100 nM): 100% | remaining binding at 1 µM (human kinome [3]; kinase PAK7 (Entrez PAK7), compound concentration 1000 nM): 78% | remaining binding at 0.1 µM (human kinome [4]): 90% | remaining binding at 1 µM (human kinome [5]): 86% | remaining binding at 0.1 µM (human kinome [6]): 100% | remaining binding at 0.1 µM (human kinome [7]): 100% | remaining binding at 0.1 µM (human kinome [8]; PAK2, 100 nM): 81% | remaining binding at 1 µM (human kinome [8]; kinase PAK2 (Entrez PAK2), compound concentration 1000 nM): 100% | remaining binding at 0.1 µM (human kinome [9]): 95% | remaining binding at 0.1 µM (human kinome [10]): 100% | remaining binding at 0.1 µM (human kinome [11]; PRKCI, 100 nM): 90% | remaining binding at 1 µM (human kinome [11]; kinase PRKCI (Entrez PRKCI), compound concentration 1000 nM): 96% | remaining binding at 0.1 µM (human kinome [12]): 100% | remaining binding at 0.1 µM (human kinome [13]; PLK3, 100 nM): 91% | remaining binding at 1 µM (human kinome [13]; kinase PLK3 (Entrez PLK3), compound concentration 1000 nM): 92% | remaining binding at 0.1 µM (human kinome [14]): 89% | remaining binding at 0.1 µM (human kinome [15]; PCTK1 (Entrez CDK16), 100 nM): 83% | remaining binding at 1 µM (human kinome [15]; kinase PCTK1 (Entrez CDK16), compound concentration 1000 nM): 24% | remaining binding at 1 µM (human kinome [16]): 98% | remaining binding at 0.1 µM (human kinome [17]): 100% | remaining binding at 0.1 µM (human kinome [18]): 92% | remaining binding at 1 µM (human kinome [19]): 73% | remaining binding at 0.1 µM (human kinome [20]; PIK3CA(Q546K), 100 nM): 100% | remaining binding at 1 µM (human kinome [20]; kinase PIK3CA(Q546K) (Entrez PIK3CA), compound concentration 1000 nM): 96% | remaining binding at 1 µM (human kinome [21]): 81% | remaining binding at 0.1 µM (human kinome [22]; PIM2, 100 nM): 100% | remaining binding at 1 µM (human kinome [22]; kinase PIM2 (Entrez PIM2), compound concentration 1000 nM): 100% | remaining binding at 0.1 µM (human kinome [23]): 100% | remaining binding at 1 µM (human kinome [24]): 68% | remaining binding at 0.1 µM (human kinome [25]): 97% | remaining binding at 0.1 µM (human kinome [26]): 99% | remaining binding at 0.1 µM (human kinome [27]; NIM1 (Entrez MGC42105), 100 nM): 100% | remaining binding at 1 µM (human kinome [27]; kinase NIM1 (Entrez MGC42105), compound concentration 1000 nM): 86% | remaining binding at 0.1 µM (human kinome [28]): 100% | remaining binding at 0.1 µM (human kinome [29]): 100%
